Experimental data from paper PMC9028180, “Anti-Inflammatory Activity of Monosubstituted Xestoquinone Analogues from the Marine Sponge Neopetrosia compacta” (Antioxidants, 2022).
Read-outs that look alike come from different tables or passages of the source. Blank lines part the entries; values can stand above or below the molecule they belong to.

What was measured:
[1] = test system: NO production in LPS-stimulated RAW 264.7 murine macrophage cells; assay: Nitric oxide production assay (Griess) in LPS-stimulated RAW 264.7 cells; type: cell-based
Protocol: The anti-inflammatory activity of the extracts and compounds was assessed according to the procedure of Ratnayake et al. (2013). RAW 264.7 murine macrophage cells (passage number ≤ 6) were grown in Dulbecco’s Modified Eagle’s Medium (DMEM) supplemented with 10% fetal bovine serum (FBS) and 1% antibiotic-antimycotic solution. At 24 h post-incubation, the cells (200,000 cells/mL) were treated with extracts (50 and 5 µg/mL) or pure compounds in triplicate. For pure compounds, a 20 mM stock was prepared in DMSO and serially diluted to generate eight concentrations ranging from 0.032–100 µM. DMSO (0.5%) served as the solvent control. Dexamethasone (50 µM) and tBHQ (10 µM) served as positive controls. LPS (1 µg/mL) was added to each well after 1 h of extract or compound pre-treatment. A reverse treatment was also done for compounds, where cells were first pre-treated with LPS (1 µg/mL) prior to the addition of the compound.
After 24 h of incubation, NO production was assessed by measuring the nitrite concentration using the Griess Reagent System (Promega, Madison, WI, USA) according to the manufacturer’s protocol. Results were presented as %NO production relative to LPS-stimulated solvent control.

[2] = test system: LPS-stimulated RAW 264.7 murine macrophage cells; assay: Tetrazolium-based (MTT) cell viability assay; details: for CC50: Mus musculus, RAW264.7, 24 h; for decrease in cytotoxicity relative to 1: from cell viability IC50, compound pre-treatment + LPS; for IC50: read-out: Cell Viability (IC50)
Protocol: MTT solution (5 mg/mL in PBS, 15 µL) was added to the original assay plate, and the reaction was terminated with the addition of acidified sodium dodecyl sulfate (SDS) solution after 2 h. Absorbance was measured at 570 nm. […] The concentration-dependent response curve for cell viability of the pure compounds was generated, and the IC50 was determined using a non-linear regression, inhibitor vs. normalized response—variable slope analysis. Samples were tested in at least one independent experiment performed in triplicate.
Statistical comparison of the cell viability IC50 of 2–6 relative to xestoquinone (1) was analyzed using one-way ANOVA and Tukey’s post-hoc test at p-value < 0.05. Comparison of the IC50 values from NO production and cytotoxicity assessment for each of the compounds were analyzed using a one-tailed unpaired t-test at p-value < 0.05.

[3] = test system: Nrf2-luciferase reporter MCF7 stable cells; assay: Nrf2-ARE activation luciferase reporter assay; type: cell-based
Protocol: Nrf2-luciferase reporter MCF7 stable cells (Signosis, Inc.) were grown in high glucose DMEM (Hyclone, Logan, UT, USA) supplemented with 10% FBS, 1% antibiotic-antimycotic solution, and 75 µg/mL geneticin. A 100-µL cell suspension was plated with a seeding density of 20,000 cells/well. The plate was incubated at 37 °C with 5% CO2 for 24 h prior to treatment. Cells were treated with compounds at half-log dilution, ranging from 0.032–100 µM (0.5% DMSO). DMSO (0.5%) and tBHQ (0.01–32 μM) served as solvent and positive controls, respectively. After 8-, 12-, and 16-h incubation, the medium was removed, and cells were washed with 100 µL 1X PBS. Lysis buffer (Signosis, Inc.) was added, and the plate was further incubated for 15 min at room temperature. A 100-µL firefly luciferase substrate (Signosis, Inc.) was added, and luminescence was measured. Nrf2 fold activation of treated cells was assessed relative to the solvent control. The assay was done in two independent experiments in triplicate.

[4] = Direct antioxidant activity, DPPH scavenging assay; details: 30 min, room temperature
Protocol: The direct antioxidant activity of 1–6 was determined using the 2,2-diphenyl-1-picrylhydrazyl (DPPH) scavenging method. Half-log dilution of 1–6 (0.032 to 100 µM) was prepared in MeOH. Then, 20 μL of 1 mM DPPH was dispensed into each well and incubated for 30 min at room temperature with shaking. Absorbance was measured at 517 nm, and results are presented as % radical scavenging activity (% RSA) relative to the solvent control. Ascorbic acid (0.032–100 µM) and tBHQ (0.032–100 µM) served as positive controls, while 0.5% DMSO served as solvent control. The analysis was done in triplicate.

Nos2 = assay: qRT-PCR differential gene expression, Nos2; type: cell-based, murine; details: 10 μM, 12 h, LPS-stimulated RAW 264.7; relative to LPS-stimulated solvent control
Protocol: (§1) RAW 264.7 cells (passage number ≤ 6) were seeded in a 6-well microplate at a density of 2.5 × 10^5 cells/well and incubated for 24 h at 37 °C with 5% CO2 prior to treatment. Cells were treated with 10 μM compound or 0.5% DMSO in duplicate and incubated for 1 h before stimulation with LPS (1 µg/mL). At 12 h post-treatment, total RNA was extracted with Qiagen RNeasy extraction kit (Germantown, MD, USA) according to manufacturer’s protocol. RNA was reverse-transcribed from 2 µg of total RNA using SuperScript IV Reverse Transcriptase (Invitrogen, Waltham, MA, USA), 1 mM dNTP, and Oligo (dT)12–18 primer (0.5 µg/mL, Invitrogen). Quantitative real time-PCR (qRT-PCR) was performed in ABI 7500 Fast Real-Time PCR (Applied Biosystems, Bedford, MA, USA). qRT-PCR was performed as a 25 µL total reaction mixture, composed of 1X TaqMan® universal master mix, 1X TaqMan® gene expression assay mix, 2 µL of cDNA, and 9.25 µL RNase-free sterile water. Analyses were carried out using probes for Il1b (Assay ID Mm00434228_m1), Nos2 (Mm00440502_m1), and Nqo1 (Mm01253561_m1). The thermocycler program was designed as follows: 50 °C for 2 min, 95 °C for 10 min, and 40 cycles of 95 °C for 15 s and 60 °C for 1 min. Mouse Gapdh (Mm99999915_g1) was used as the internal control for normalization. The measurement of gene expression is reported in cycles to threshold (Ct) PCR, whose value represents the cycle number at which the amount of amplified DNA of the target gene reached the threshold level. The relative gene expression was analyzed using the comparative Ct method to compare the Ct value of the target gene to the internal control in a treatment sample. Statistical analysis on the relative gene expression was carried out using one-way ANOVA and Tukey’s multiple comparison test with p-value < 0.05. Analysis was done in two independent experiments with three technical replicates each.

Il1b = assay: qRT-PCR differential gene expression, Il1b; type: cell-based, murine; details: 10 μM, 12 h, LPS-stimulated RAW 264.7; relative to LPS-stimulated solvent control
Protocol: as §1

Nqo1 = assay: qRT-PCR differential gene expression, Nqo1; type: cell-based, murine; details: 10 μM, 12 h, LPS-stimulated RAW 264.7
Protocol: as §1

[5] = test system: Nrf2-luciferase reporter MCF7 stable cells; assay: Cytotoxicity counter-screen on Nrf2-luciferase reporter MCF7 cells; type: cell-based
Protocol: Absorbance was measured at 570 nm. […] For the cytotoxicity counter-screen, Nrf2-luciferase reporter MCF7 stable cells were grown, seeded, and treated identically with the reporter assay. Cell viability was done using the tetrazolium reagent, as indicated previously.

[6] = Mus musculus, RAW264.7, 24 h, Compound pre-treatment 1 h + LPS (1 µg/mL), 24 h, mean ± SD of two independent experiments, read-out: NO Production (IC50)
[7] = Mus musculus, RAW264.7, 24 h, LPS pre-treatment 1 h + compound, single experiment in triplicate, read-out: NO Production (IC50)
[8] = read-out: Cell Viability (IC50), Compound pre-treatment 1 h + LPS, 24 h, mean ± SD of two independent experiments
[9] = read-out: Cell Viability (IC50), LPS pre-treatment 1 h + compound, single experiment in triplicate
[10] = Compound pre-treatment 1 h + LPS (1 µg/mL), 24 h, mean ± SD of two independent experiments, read-out: NO Production (IC50)
[11] = LPS pre-treatment 1 h + compound, single experiment in triplicate, read-out: NO Production (IC50)
[12] = Compound pre-treatment 1 h + LPS, 24 h, mean ± SD of two independent experiments
[13] = LPS pre-treatment 1 h + compound, single experiment in triplicate
[14] = both timepoints (12 h and 16 h)

Molecule: CC12CCCc3coc(c31)C(=O)c1cc3c(cc12)C(=O)C=C(CO)C3=O (stereo not shown) [Compound 4, 14-hydroxymethylxestoquinone]
IC50 [1, 6]: 2.5 ± 0.39 µM
IC50 [1, 7]: 1.8 µM
CC50 [2, 8]: 16 ± 0.68 µM
CC50 [2, 9]: 27 µM
decrease in cytotoxicity relative to 1 [2]: more than two
Nrf2 activation ([3]; 12 h posttreatment): modest increase in Nrf2 activation

IC50 [4]: 13 µM
Molecule: O=C1O[C@H]([C@@H](O)CO)C(O)=C1O [ascorbic acid]

Molecule: CC12CCCc3coc(c31)C(=O)c1cc3c(cc12)C(=O)C(CO)=CC3=O (stereo not shown) [Compound 5, 15-hydroxymethylxestoquinone]
IC50 [1, 6]: 4 ± 2.4 µM
IC50 [1, 7]: 4.7 µM
CC50 [2, 8]: > 32 µM
CC50 [2, 9]: > 32 µM
decrease in cytotoxicity relative to 1 [2]: five
downregulation of LPS-induced Nos2 expression (Nos2): 2.6 fold
downregulation of Il1b expression (Il1b): 2.1 fold
upregulation in Nqo1 expression (Nqo1): 3.0 fold

Molecule: adociaquinone A [Compound 3]
IC50 [1, 10]: 2.1 ± 0.17 µM
IC50 [1, 11]: 1.5 µM
IC50 [2, 12]: 6.4 ± 1.2 µM
IC50 [2, 13]: 5.9 µM
Nrf2 activation [3, 14]: Nrf2 activation was not observed

Molecule: C[C@@H]1C[C@H]2[C@@H]3CCC4=CC(=O)C=C[C@]4(C)[C@@]3(F)[C@@H](O)C[C@]2(C)[C@@]1(O)C(=O)CO [dexamethasone, reference compound]
reduction of NO production ([1]; 50 µM): 50%
IC50 [1, 6]: > 0.032 µM
IC50 [1, 7]: > 0.032 µM
CC50 [2, 8]: > 100 µM
CC50 [2, 9]: > 100 µM

Molecule: C[C@@]12CCCc3coc(c31)C(=O)c1cc3c(cc12)C(=O)C=CC3=O [Compound 1, xestoquinone]
IC50 [1, 6]: 1.2 ± 0.1 µM
IC50 [1, 7]: 0.99 µM
CC50 [2, 8]: 6 ± 3.2 µM
CC50 [2, 9]: 4.9 µM
Nrf2 activation ([3]; 12 h, 1.0 μM, relative to solvent control): at least three
Nrf2 activation ([3]; 12 h, 3.2 μM): at least three
Nrf2 activation ([3]; 12 h posttreatment): modest increase in Nrf2 activation
Nrf2 activation ([3]; 16 h, 1.0 μM): four
Nrf2 activity in reporter assay ([3]; 16 h incubation): significant activation
cytotoxicity to Nrf2-MCF7 cells ([5]; 12 h, 1.0 and 3.2 μM): no cytotoxicity
cytotoxicity to Nrf2-MCF7 cells ([5]; 16 h, 1.0 and 3.2 μM): no significant cytotoxic effects
downregulation of LPS-induced Nos2 expression (Nos2): 2.7 fold
downregulation of Il1b expression (Il1b): 2.6 fold
upregulation in Nqo1 expression (Nqo1): did not change the Nqo1 expression

IC50 [4]: 11 µM
Molecule: CC(C)(C)c1cc(O)ccc1O [tBHQ, reference compound]
reduction of NO production ([1]; 10 µM): 90%
IC50 [1, 10]: 1.2 ± 0.23 µM
IC50 [1, 11]: 0.42 µM
IC50 [2, 12]: > 100 µM
IC50 [2, 13]: > 100 µM
Nrf2 activation ([3]; 12 h, 32 μM): 18 fold
Nrf2 activation ([3]; 16 h, 10 μM): four
Nrf2 activation ([3]; 16 h, 32 μM): 19 fold
cytotoxicity to Nrf2-MCF7 cells ([5]; 12 h, 10 and 32 μM): no observable cytotoxicity
cytotoxicity to Nrf2-MCF7 cells ([5]; 16 h, 10 and 32 μM): non-cytotoxic
downregulation of LPS-induced Nos2 expression (Nos2): 3.8 fold
downregulation of Il1b expression (Il1b): six
upregulation in Nqo1 expression (Nqo1): 6.3 fold

Molecule: C[C@@]12CCCc3coc(c31)C(=O)c1cc3c(cc12)C(=O)C1=C(NCCS1(=O)=O)C3=O [Compound 2, adociaquinone B]
IC50 ([1]; Mus musculus, RAW264.7, 24 h, read-out: NO Production (IC50), Compound pre-treatment 1 h + LPS (1 µg/mL), 24 h, mean ± SD of two independent experiments): 1.9 ± 0.72 µM
IC50 ([1]; Mus musculus, RAW264.7, 24 h, read-out: NO Production (IC50), LPS pre-treatment 1 h + compound, single experiment in triplicate): 1.5 µM
CC50 [2, 8]: 5.3 to 6.4 µM
CC50 [2, 9]: 4.2 µM
Nrf2 activation [3, 14]: Nrf2 activation was not observed
downregulation of LPS-induced Nos2 expression (Nos2): unaffected
downregulation of Il1b expression (Il1b): 12.1 fold
upregulation in Nqo1 expression (Nqo1): did not change the Nqo1 expression
